Assay results taken from US12336536B2, “Method for controlling herbicide resistant or tolerant weeds” (BASF Agro B.V., priority 2015, dated 2025).

System: blackgrass (ALOMY) biotypes
Assay: Greenhouse test, control of resistant weed biotypes, post-emergence, blackgrass
Type: in vivo, Alopecurus myosuroides
Settings: for Herbicidal activity: post-emergence, scale 0 to 100
Method: The herbicidal activity of herbicide A on resistant weed biotypes was tested in comparison with certain commercial herbicides by the following greenhouse experiments:
The culture containers used were plastic flowerpots containing loamy sand with approximately 3.0% of humus as the substrate. The seeds of the test plants were sown separately for each species. Six blackgrass (ALOMY) (10-103, 10-170, 09-591, 10-123, 11-215, 11-146) and six ryeg rass (LOLMU) (12-166, 12-143, 12-165, 12-307, 13-304, 13-313) biotypes with varying degrees of resistance towards a range of modes of action according to the HRAC (Herbicide Resistance Action Committee) classification on mode of action 2010 (see e.g http://www.hracglobal.com/pages/classificationofherbicidesiteofaction.aspx) were tested alongside two non-resistant biotypes (14-116 and 13-243), see Tables 1 and 2 below.
For the post-emergence treatment, the test plants were first grown to a height of 3 to 15 cm, depending on the plant habit, and only then treated with the active ingredients which had been suspended or emulsified in water. For this purpose, the test plants were either sown directly and grown in the same containers, or they were first grown separately as seedlings and transplanted into the test containers a few days prior to treatment.
Depending on the species, the plants were kept at 10-25° C. or 20-35° C. The test period extended over 2 to 4 weeks. During this time, the plants were tended, and their response to the individual treatments was evaluated.
The racemic mixture (±)-2-exo-(2-Methylbenzyloxy)-1-methyl-4-isopropyl-7-oxabicyclo[2.2.1]heptane was used as herbicide A and formulated as emulsifiable concentrates with an active ingredient concentration of 50 g/l, 100 g/l or 750 g/l respectively.
Flufenacet was used as a commercial concentrated solution formulation having an active ingredient concentration of 500 g/l (Cadou).
Imazamox was used as a water dispersible granule (70% WG).
Evaluation of the herbicidal activity was carried out using a scale from 0 to 100. 100 means complete destruction of at least the aerial moieties, and 0 means no damage, or normal course of growth. A good herbicidal activity is given at values of at least 70 and a very good herbicidal activity is given at values of at least 85.

## (±)-2-exo-(2-Methylbenzyloxy)-1-methyl-4-isopropyl-7-oxabicyclo[2.2.1]heptane [Herbicide A]
BT 09-591, resistant HRAC group A, B, K, 125 g ai/ha
  Herbicidal activity: 80
BT 09-591, resistant HRAC group A, B, K, 250 g ai/ha
  Herbicidal activity: 95
BT 10-103, resistant HRAC group A, B, K, 125 g ai/ha
  Herbicidal activity: 80
BT 10-103, resistant HRAC group A, B, K, 250 g ai/ha
  Herbicidal activity: 95
BT 10-123, resistant HRAC group A, B, C, 125 g ai/ha
  Herbicidal activity: 85
BT 10-123, resistant HRAC group A, B, C, 250 g ai/ha
  Herbicidal activity: 90
BT 10-170, resistant HRAC group A, B, K, 125 g ai/ha
  Herbicidal activity: 85
BT 10-170, resistant HRAC group A, B, K, 250 g ai/ha
  Herbicidal activity: 90
BT 11-146, resistant HRAC group K, 125 g ai/ha
  Herbicidal activity: 90
BT 11-146, resistant HRAC group K, 250 g ai/ha
  Herbicidal activity: 95
BT 11-215, resistant HRAC group A, B, C, E, K, 125 g ai/ha
  Herbicidal activity: 80
BT 11-215, resistant HRAC group A, B, C, E, K, 250 g ai/ha
  Herbicidal activity: 95
BT 14-116, Sensitive standard, 125 g ai/ha
  Herbicidal activity: 65
BT 14-116, Sensitive standard, 250 g ai/ha
  Herbicidal activity: 100
post-emergence treatment, various biotypes of blackgrass (ALOMY) with varying degrees of resistance
  herbicidal activity (summary in words): very good herbicidal activity (a very good herbicidal activity is given at values of at least 85)
